Measurements as given in patent US11181534B2, “Routine laboratory and point-of-care (POC) testing for hemostasis” (Bloodworks, priority 2014, dated 2021).

Columns and labels:
Factor IX (FIX) [1] = experiment: FIX coefficient, Activity:Antigen ratio (dilution into FIX-deficient plasma / normal plasma standards); format: biochemical, human
Protocol: (§1) Blood samples were collected by venipuncture in 3.2% sodium citrate anticoagulant. Platelet poor plasma was separated by centrifugation per clinical protocols, snap frozen, and stored at −80 C until tested. FIX Antigen was measured by FIX-EIA paired antibody ELISA (Affinity Biologicals). FIX-deficient plasma (Affinity Biologicals) was used as a negative control and diluent. FIX Activity was performed via manual one-stage assay per the clinical laboratory protocols of the Bloodworks Northwest Hemostasis Reference Laboratory. FIX-deficient plasma (Siemens) was used as a diluent and negative control. The Benefix (Wyeth Pharmaceuticals) coefficient was ascertained by serial dilution of Benefix into FIX-deficient plasma (Affinity Biologicals), performance of both the FIX Antigen and Activity assays, and calculating the Activity:Antigen ratio.
The patient then received a dose of Alprolix followed by a blood draw 24 hours later. The Alprolix drug coefficient was not able to be experimentally determined due to limited drug availability. In lieu of this, we used normal plasma standards and experimentally determined the coefficient of normal human FIX to be 1.1. We then assumed the drug coefficient for Alprolix to be similar to naturally occurring FIX, and determined the patient's FIX level by: FIX Activity=(Base FIX Activity)+[(Measured FIX Antigen−Base FIX Antigen)×(Patient's FIX Coefficient)].

Factor IX (FIX) [2] = experiment: FIX Activity by manual one-stage assay in patient plasma; format: in vivo, human; details: FIX Case #1, at presentation, 6 days after Benefix
Protocol: as §1

Factor IX (FIX) [3] = experiment: FIX Antigen by FIX-EIA paired antibody ELISA in patient plasma; format: in vivo, human; details: FIX Case #1, patient with severe Hemophilia B, at presentation, 6 days after Benefix
Protocol: as §1

Factor VIII (FVIII) [4] = experiment: FVIII Antigen by ELISA (FVIII-AG ELISA kit) in patient plasma; format: in vivo, human
Protocol: (§2) Blood samples were collected by venipuncture in 3.2% sodium citrate anticoagulant. Platelet poor plasma was separated by centrifugation per clinical protocols, snap frozen, and stored at −80 C until tested. FVIII Antigen was measured by ELISA (FVIII-AG ELISA kit, Affinity Biologicals) per the manufacturer's instructions. FVIII Activity was measured by manual one-stage assay per the clinical protocol of the Bloodworks Northwest Hemostasis Reference Laboratory. The Koate DVI (Kedrion) coefficient (in vivo) was ascertained by measuring FVIII Antigen and FVIII Activity samples from patients undergoing clinically-indicated Koate DVI kinetic studies and calculating the Activity:Antigen ratio. Pooled normal plasma (Precision BioLogic), normal reference plasmas (Precision BioLogic, Siemens), abnormal reference plasma (Siemens), samples from healthy blood donors, and FVIII-deficient plasma (Affinity Biologicals, Siemens) were used in assays as standards and controls.

Factor VIII (FVIII) [5] = experiment: FVIII Activity by manual one-stage assay in patient plasma; format: in vivo, human; details: FVIII Case #3, 45 min after Stimate; baseline 18.9%
Protocol: as §2

Factor XI (FXI) = experiment: Factor XI Coefficient, serial dilution of normal reference plasma into FXI-deficient plasma; format: biochemical, human; details: plasma pooled from healthy subjects
Protocol: Commercially-available normal and abnormal (FVII- and FXI-deficient) plasmas (Siemens) were obtained to be tested as experimental samples. Factor VII and Factor XI Coefficients were determined by serial dilution of normal reference plasma (Precision BioLogic) into FVII-deficient and FXI-deficient plasmas (Affinity Biologicals).
We tested two plasmas, one with normal levels of FXI, and one deficient in FXI (approximately 1/3 FXI activity). We experimentally determined using plasma pooled from healthy subjects that the coefficient of natural FXI is 0.82. The FXI Activity was then determined by: FXI Activity=[(Measured FXI Antigen)×(FXI Coefficient)].

normal human FIX: naturally occurring FIX in normal plasma standards
coefficient of normal human FIX (Factor IX (FIX) [1]; normal plasma standards): 1.1

Benefix: a different FIX replacement therapy (Wyeth Pharmaceuticals / Pfizer)
FIX Activity (Measured) (Factor IX (FIX) [2]): 4%
Measured FIX Antigen (FIX:Ag) (Factor IX (FIX) [3]): 8.0 IU/dL
drug coefficient (FIX Activity:Antigen ratio) (Factor IX (FIX) [1]; serial dilution of Benefix into FIX-deficient plasma): 2.1

NC(=O)CC[C@@H]1NC(=O)[C@H](Cc2ccccc2)NC(=O)[C@H](Cc2ccc(O)cc2)NC(=O)CCSSC[C@@H](C(=O)N2CCC[C@H]2C(=O)N[C@H](CCCN=C(N)N)C(=O)NCC(N)=O)NC(=O)[C@H](CC(N)=O)NC1=O [Stimate]
FVIII Activity (Calculated) (Factor VIII (FVIII) [4]; FVIII Case #3, 45 min after Stimate, calculated with patient's FVIII coefficient 1.97, baseline 18.9%): 48.92%
Measured FVIII Antigen (FVIII:Ag) (after Stimate) (Factor VIII (FVIII) [4]; FVIII Case #3, patient with mild Hemophilia A, 45 min after Stimate, baseline 9.59 IU/dL): 24.83 IU/dL
FVIII Activity (Measured) (Factor VIII (FVIII) [5]): 50.76%

natural FXI: FXI of plasma pooled from healthy subjects
coefficient of natural FXI (Factor XI (FXI)): 0.82
